# Measured values published in patent US20230263817A1, “HIGH DOSE NICOTINAMIDE ADENINE DINUCLEOTIDE (NAD) PRECURSOR REGIMENS FOR REDUCTION OF INFLAMMATION IN HUMAN PATIENTS WITH PREEXISTING INFLAMMATION” (University of Washington, priority 2021, published 2023).
# Tests used:
# [1] = Whole blood NAD+ in Stage D HF patients on oral NR for 5-9 days; assay type: in vivo, human; conditions: oral NR up to 1000 mg twice a day, post vs pre
# Protocol: (§1) For experiments associated with the oral NR administration (FIGS. 12C-12F), 5 hospitalized Stage D HF patients undergoing advanced heart failure therapy evaluations were put on escalating doses of NR (250 mg twice a day for Day 1, 500 mg twice a day for Day 2, and 1000 mg twice a day from Day 3 on) for 5-9 days. Fasting blood samples were obtained for PBMC isolation at baseline and post-NR administration. Subject 5 was withdrawn due to a change in clinical course deemed to be independent from NR administration.
# Whole bloodNAD^+ assays. These were performed as previously described (Airhart S E, et al., PLoS One. 2017, 12(12):e0186459). Briefly, 50 μL of thawed blood samples were added to tubes containing 1 μg BMP as the internal standard and immediately followed by 300 μL of 4% trichloroacetic acid to precipitate proteins. Calibration standards were similarly prepared except that the matrix was 30 mg/mL BSA spiked with NAD^+ and NMN that had been dissolved in methanol. After protein precipitation and high-speed centrifugation, the supernatants were loaded onto Costar Spin-X 0.22 μm spin filters and subject to high speed centrifugation again. The eluates were injected onto an Agilent 1100 series high performance liquid chromatograph coupled to an Agilent G1956B single-quadrupole mass spectrometer. The mass spectrometer was operated in electrospray ionization mode with positive polarity.
# [2] = test system: NLRP3 and proinflammatory cytokine gene expressions in HF PBMCs; test: RT-qPCR of NLRP3 and cytokine mRNA in Stage D HF PBMCs treated in vitro with NR; assay type: cell-based, human; conditions: 4-hour 1 mM NR vs vehicle
# Protocol: PBMC and Monocyte Culture. Freshly isolated PBMCs or Monocytes from healthy or HF subjects were resuspended with RPMI medium plus 10% heat inactivated FBS. PBMCs (10^6 cells/well) were seeded in Seahorse 24-well plates and incubated at 37° C. in CO2 incubator with various proinflammatory triggers (Vehicle, MitoDAMP, LPS) and compounds (NR, MCC 950, MitoTempo, or LMT-28). After 4 hours incubation, the plate was centrifuged at 40 g for 10 minutes at room temperature without application of the brake to help cells attach to the bottom of the plate. The cells were washed twice and then brought up to 500 μL using Seahorse base medium (Agilent Technologies, supplemented with 1 mM pyruvate, 2 mM glutamine, and 10 mM glucose, pH 7.4).
# IL6 ELISA. Isolated PBMCs (4×10^6 cells per sample) from healthy or HF participants were resuspended in RPMI medium containing 10% heat-inactivated FBS and treated with various proinflammatory triggers (Vehicle, MitoDAMP, LPS) and compounds (NR, MCC 950, MitoTempo, or LMT-28) to final PBMC concentrations of 10×10^6 cells per mL. See below for detailed descriptions of the reagents. […]
# RNA Isolation and Quantitative PCR analysis. […] Real-time PCR was performed in the Corbett rotor gene 6000 real-time PCR machine using iQ™ SYBR® Green Supermix (Bio-rad) and expression levels of the indicated genes were calculated using the ΔΔCt method.
# [3] = test system: NLRP3 and cytokines mRNA of PBMC of Stage D HF subjects; test: PBMC NLRP3 and cytokine mRNA of Stage D HF patients pre- and post-oral NR; assay type: in vivo, human; conditions: oral NR 5-9 days, post vs pre
# Protocol: as §1
# RNA Isolation and Quantitative PCR analysis. Total RNA was isolated from frozen PBMC pellets using Trizol (Invitrogen) per the manufacturer's instructions, and cDNA was synthesized using iScript™ Reverse Transcription Supermix (Bio-rad) per the manufacturer's instructions. Real-time PCR was performed in the Corbett rotor gene 6000 real-time PCR machine using iQ™ SYBR® Green Supermix (Bio-rad) and expression levels of the indicated genes were calculated using the ΔΔCt method.
smiles,measurement,setting,value
"NC(=O)c1ccc[n+]([C@@H]2O[C@H](CO)[C@@H](O)[C@H]2O)c1 [NR, nicotinamide riboside]",whole blood NAD+ levels,[1],increases
same,reductions of NLRP3 and proinflammatory cytokine gene expressions,[2],minimal
same,reduction of proinflammatory cytokine gene expressions,[3],up to 30 fold
